Reference: patent US7691860B2, “Sulfonamide derivatives” (Banyu Pharmaceutical Co., Ltd., priority 2004, dated 2010)

These molecules were tested against T1, human NPY Y5 receptor (Homo sapiens, UniProt Q15761) (assay: NPY binding inhibition test ([125I]peptide YY binding to membranes of NPY Y5 receptor expressing cells)). Details: membrane sample of NPY Y5 receptor expressed cells, 25° C., 2 hours, read-out: IC50 against specific peptide YY binding.
T1 construct: expressed in transfected cells; host or cells: COS-7, CHO and LM(tk-)
T1 sequence (Q15761 1-445): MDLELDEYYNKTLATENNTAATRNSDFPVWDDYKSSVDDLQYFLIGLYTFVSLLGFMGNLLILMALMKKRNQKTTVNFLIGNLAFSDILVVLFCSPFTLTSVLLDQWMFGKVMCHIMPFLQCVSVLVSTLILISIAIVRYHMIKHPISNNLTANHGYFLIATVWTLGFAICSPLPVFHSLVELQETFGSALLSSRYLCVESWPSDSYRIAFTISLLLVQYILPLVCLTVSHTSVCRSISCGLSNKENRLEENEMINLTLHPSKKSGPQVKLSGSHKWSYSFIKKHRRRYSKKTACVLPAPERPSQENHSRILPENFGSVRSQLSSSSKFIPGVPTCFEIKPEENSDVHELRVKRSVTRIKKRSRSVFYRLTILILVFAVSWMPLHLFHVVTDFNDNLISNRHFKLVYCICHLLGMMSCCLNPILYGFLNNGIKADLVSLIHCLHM
Text: The cDNA sequence (refer to the specification of WO 96/16542) encoding human NPY Y5 receptor was cloned into the expression vectors, pcDNA3, pRc/RSV (supplied by Invitrogen Co.) and pCI-neo (supplied by Promega Co.). The resultant expression vectors were transfected into the host cells, COS-7, CHO and LM(tk−) (American Type Culture Collection) using the cationic lipid method (refer to Proceedings of the National Academy of Sciences of the United States of America, vol. 84, pp. 7413 (1987)) to give NPY Y5 receptor expression cells. A membrane sample prepared from the NPY Y5 receptor expressed cells was incubated together with a test compound and 20,000 cpm of [^125I]peptide YY (supplied by NEN Co.) in an assay buffer (25 mM Tris buffer, pH 7.4, containing 10 mM of magnesium chloride, 1 mM of phenylmethylsulfonyl fluoride, 0.1% bacitracin and 0.5% bovine serum albumin) at 25° C. for 2 hours, followed by filtration through glassfilter GF/C. After washing with 5 mM Tris buffer (pH7.4) containing 0.3% BSA, radioactivity of the cake on the filter was measured. Non-specific binding was measured in the presence of 1 μM of peptide YY, and a 50% Inhibition Concentration (IC50 value) of the test compound against specific peptide YY binding was determined (refer to Endocrinology, vol. 131, pp. 2090 (1992)).
`CC(C)(C)S(=O)(=O)N[C@H]1CC[C@H](c2nc3ccc(-c4ccccc4)cc3[nH]2)CC1` [Example 3, 2-(trans-4-tert-butylsulfonylamino-cyclohexyl)-5-phenylbenzimidazole] showed an IC50 of 0.67 nM. `CC(C)(C)S(=O)(=O)N[C@H]1CC[C@H](c2nc3nc(-c4ccc(F)cc4)ncc3[nH]2)CC1` [Example 7, 8-(trans-4-tert-butylsulfonylamino-cyclohexyl)-2-(4-fluorophenyl)purine] showed an IC50 of 1.2 nM. Molecule `CC(C)(C)S(=O)(=O)NC1CCN(c2nc3ccc(-c4ccccc4)cc3[nH]2)CC1` [Example 17, 2-(4-tert-butylsulfonylaminopiperidin-1-yl)-5-phenylbenzimidazole] has an IC50 of 1.5 nM. Work on `CC(C)(C)S(=O)(=O)N[C@H]1CC[C@H](c2nc3nc(-c4ccccc4)ncc3[nH]2)CC1` [Example 9, 8-(trans-4-tert-butylsulfonylamino-cyclohexyl)-2-phenylpurine] yielded an IC50 of 1.6 nM. `CS(=O)(=O)Nc1ccccc1N1CCN(c2nc3nc(-c4ccccc4)ncc3[nH]2)CC1` [Example 22, 8-{1-(2-methylsulfonylaminophenyl)piperazin-4-yl}-2-phenylpurine] showed an IC50 of 1.7 nM. Molecule `CC(C)(C)S(=O)(=O)N[C@H]1CC[C@H](c2nc3nc(-c4ccccc4F)ccc3[nH]2)CC1` [Example 4, 2-(trans-4-tert-butylsulfonylamino-cyclohexyl)-5-(2-fluorophenyl)imidazo[4,5-b]pyridine] has an IC50 of 1.4 nM.
